Measured values from US20150148234A1, “HERBICIDE-RESISTANT SUNFLOWER PLANTS WITH MULTIPLE HERBICIDE RESISTANT ALLELES OF AHASL1 AND METHODS OF USE” (NIDERA S.A., priority 2013, published 2015).

Assays:
Assay in all cases: imazapyr whole plant greenhouse test (Example 2)
Type in all cases: in vivo
[1] = system: sunflower hybrid H4 (L1 × L4), A205V + A122T
Procedure: (§1) Seeds were sown in Petri dishes and, after germination, plantlets were transplanted to pots of 10 cm of diameter in a potting media consisting of equal parts of vermiculite, soil and sand. Plants were grown in a greenhouse under natural light conditions supplemented with 400 W sodium halide lamps to provide a 16 hr daylength. Day/night temperatures were 25 and 20 ° C., respectively. At the V2-V4 stage (Schneiter & Miller (1981) Crop Sci. 21:901-903) 10 plants of each genotype were randomly assigned to each treatment consisting of eight imazapyr doses (0, 40, 80, 160, 240, 320, 400 and 480 g ai/ha, corresponding to untreated, 0.5×, 1×, 2×, 3×, 4×, 5× and 6×, respectively), and a zero-time biomass determination. Experiment was arranged as a randomized block design with a full factorial (sunflower line×treatment) arrangement of treatments and 10 replications.
(§2) On the day of herbicide application ten plants of each genotype were cut at the cotyledonal node and dried at 60° C. for 48 hrs for zero-time dried weight determination.
(§3) The remaining plants were maintained for 14 days after imazapyr treatment (DAT) and their height, Phytotoxicity Index (PI) and above ground dry biomass were determined Height was determined as the distance between the cotyledonal node and the apex of each plant. Above ground biomass data from each line were converted to biomass accumulation after application by subtracting the appropriate average zero- time biomass from each sample. Dry biomass data were converted to percentages of the untreated control plants within each line to allow direct comparisons between groups.

[2] = system: sunflower hybrid H2 (L3 × L4), A122T
Procedure: as §1, §2, §3

[3] = system: sunflower line L5 (BTK 47), susceptible, WT; settings: for Phytotoxicity Index (0-9) 14 days after treatment / biomass accumulation 14 days after treatment, % of untreated / plant height 14 days after treatment, % of untreated: L5
Procedure: as §1, §2, §3

With `CC(C)C1(C)N=C(c2ncccc2C(=O)O)NC1=O` (stereo not shown) [imazapyr] the “Phytotoxicity Index (0-9) 14 days after treatment” value (“Phytotoxicity Index (0-9) 14 days” for short) ([1]; dose 0.5 (0.5x, 40 g ai/ha)) was 0.0, the “biomass accumulation 14 days after treatment, % of untreated” value ([1]; dose 0.5 (0.5x, 40 g ai/ha)) was 99.479% and the “plant height 14 days after treatment, % of untreated” value ([1]; dose 0.5 (0.5x, 40 g ai/ha)) was 100.0%. The “Phytotoxicity Index (0-9) 14 days” value ([1]; dose 1 (1x, 80 g ai/ha)) was 0.0, the “biomass accumulation 14 days after treatment, % of untreated” value ([1]; dose 1 (1x, 80 g ai/ha)) was 97.8% and the “plant height 14 days after treatment, % of untreated” value ([1]; dose 1 (1x, 80 g ai/ha)) was 99.6%. For the same compound, the “Phytotoxicity Index (0-9) 14 days” value ([1]; dose 2 (2x, 160 g ai/ha)) was 0.0, the “biomass accumulation 14 days after treatment, % of untreated” value ([1]; dose 2 (2x, 160 g ai/ha)) was 92.2% and the “plant height 14 days after treatment, % of untreated” value ([1]; dose 2 (2x, 160 g ai/ha)) was 100.0%. The “Phytotoxicity Index (0-9) 14 days” value ([1]; dose 3 (3x, 240 g ai/ha)) was 0.0, the “biomass accumulation 14 days after treatment, % of untreated” value ([1]; dose 3 (3x, 240 g ai/ha)) was 88.2% and the “plant height 14 days after treatment, % of untreated” value ([1]; dose 3 (3x, 240 g ai/ha)) was 100.0%. For the same compound, the “Phytotoxicity Index (0-9) 14 days” value ([1]; dose 4 (4x, 320 g ai/ha)) was 0.0, the “biomass accumulation 14 days after treatment, % of untreated” value ([1]; dose 4 (4x, 320 g ai/ha)) was 85.0% and the “plant height 14 days after treatment, % of untreated” value ([1]; dose 4 (4x, 320 g ai/ha)) was 95.0%. The “Phytotoxicity Index (0-9) 14 days” value ([1]; dose 5 (5x, 400 g ai/ha)) was 0.2, the “biomass accumulation 14 days after treatment, % of untreated” value ([1]; dose 5 (5x, 400 g ai/ha)) was 78.7% and the “plant height 14 days after treatment, % of untreated” value ([1]; dose 5 (5x, 400 g ai/ha)) was 87.2%. For the same compound, the “Phytotoxicity Index (0-9) 14 days” value ([1]; dose 6 (6x, 480 g ai/ha)) was 0.0, the “biomass accumulation 14 days after treatment, % of untreated” value ([1]; dose 6 (6x, 480 g ai/ha)) was 71.8% and the “plant height 14 days after treatment, % of untreated” value ([1]; dose 6 (6x, 480 g ai/ha)) was 65.5%. The “Phytotoxicity Index (0-9) 14 days” value ([2]; dose 0.5 (0.5x, 40 g ai/ha)) was 0.5, the “biomass accumulation 14 days after treatment, % of untreated” value ([2]; dose 0.5 (0.5x, 40 g ai/ha)) was 100% and the “plant height 14 days after treatment, % of untreated” value ([2]; dose 0.5 (0.5x, 40 g ai/ha)) was 99.2%. For the same compound, the “Phytotoxicity Index (0-9) 14 days” value ([2]; dose 1 (1x, 80 g ai/ha)) was 0.5, the “biomass accumulation 14 days after treatment, % of untreated” value ([2]; dose 1 (1x, 80 g ai/ha)) was 97.2% and the “plant height 14 days after treatment, % of untreated” value ([2]; dose 1 (1x, 80 g ai/ha)) was 98.6%. For the same compound, the “Phytotoxicity Index (0-9) 14 days” value ([2]; dose 2 (2x, 160 g ai/ha)) was 0.5, the “biomass accumulation 14 days after treatment, % of untreated” value ([2]; dose 2 (2x, 160 g ai/ha)) was 97.9% and the “plant height 14 days after treatment, % of untreated” value ([2]; dose 2 (2x, 160 g ai/ha)) was 100.3%. The “Phytotoxicity Index (0-9) 14 days” value ([2]; dose 3 (3x, 240 g ai/ha)) was 0.5, the “biomass accumulation 14 days after treatment, % of untreated” value ([2]; dose 3 (3x, 240 g ai/ha)) was 98.2% and the “plant height 14 days after treatment, % of untreated” value ([2]; dose 3 (3x, 240 g ai/ha)) was 99.6%. For the same compound, the “Phytotoxicity Index (0-9) 14 days” value ([2]; dose 4 (4x, 320 g ai/ha)) was 0.5, the “biomass accumulation 14 days after treatment, % of untreated” value ([2]; dose 4 (4x, 320 g ai/ha)) was 97.8% and the “plant height 14 days after treatment, % of untreated” value ([2]; dose 4 (4x, 320 g ai/ha)) was 101.0%. For the same compound, the “Phytotoxicity Index (0-9) 14 days” value ([2]; dose 5 (5x, 400 g ai/ha)) was 0.5, the “biomass accumulation 14 days after treatment, % of untreated” value ([2]; dose 5 (5x, 400 g ai/ha)) was 85.1% and the “plant height 14 days after treatment, % of untreated” value ([2]; dose 5 (5x, 400 g ai/ha)) was 87.0%. For the same compound, the “Phytotoxicity Index (0-9) 14 days” value ([2]; dose 6 (6x, 480 g ai/ha)) was 0.5, the “biomass accumulation 14 days after treatment, % of untreated” value ([2]; dose 6 (6x, 480 g ai/ha)) was 79.5% and the “plant height 14 days after treatment, % of untreated” value ([2]; dose 6 (6x, 480 g ai/ha)) was 79.6%. The “Phytotoxicity Index (0-9) 14 days” value ([3]; dose 0.5 (0.5x, 40 g ai/ha)) was 9, the “biomass accumulation 14 days after treatment, % of untreated” value ([3]; dose 0.5 (0.5x, 40 g ai/ha)) was 18.3% and the “plant height 14 days after treatment, % of untreated” value ([3]; dose 0.5 (0.5x, 40 g ai/ha)) was 20.14%. For the same compound, the “Phytotoxicity Index (0-9) 14 days” value ([3]; dose 1 (1x, 80 g ai/ha)) was 9, the “biomass accumulation 14 days after treatment, % of untreated” value ([3]; dose 1 (1x, 80 g ai/ha)) was 15.0% and the “plant height 14 days after treatment, % of untreated” value ([3]; dose 1 (1x, 80 g ai/ha)) was 14.58%. For the same compound, the “Phytotoxicity Index (0-9) 14 days” value ([3]; dose 2 (2x, 160 g ai/ha)) was 9, the “biomass accumulation 14 days after treatment, % of untreated” value ([3]; dose 2 (2x, 160 g ai/ha)) was 15.0% and the “plant height 14 days after treatment, % of untreated” value ([3]; dose 2 (2x, 160 g ai/ha)) was 14.58%. The “Phytotoxicity Index (0-9) 14 days” value ([3]; dose 3 (3x, 240 g ai/ha)) was 9, the “biomass accumulation 14 days after treatment, % of untreated” value ([3]; dose 3 (3x, 240 g ai/ha)) was 15.0% and the “plant height 14 days after treatment, % of untreated” value ([3]; dose 3 (3x, 240 g ai/ha)) was 14.58%. The “Phytotoxicity Index (0-9) 14 days” value ([3]; dose 4 (4x, 320 g ai/ha)) was 9, the “biomass accumulation 14 days after treatment, % of untreated” value ([3]; dose 4 (4x, 320 g ai/ha)) was 15.0% and the “plant height 14 days after treatment, % of untreated” value ([3]; dose 4 (4x, 320 g ai/ha)) was 14.58%. The “Phytotoxicity Index (0-9) 14 days” value ([3]; dose 5 (5x, 400 g ai/ha)) was 9, the “biomass accumulation 14 days after treatment, % of untreated” value ([3]; dose 5 (5x, 400 g ai/ha)) was 15.0% and the “plant height 14 days after treatment, % of untreated” value ([3]; dose 5 (5x, 400 g ai/ha)) was 14.58%. For the same compound, the “Phytotoxicity Index (0-9) 14 days” value ([3]; dose 6 (6x, 480 g ai/ha)) was 9, the “biomass accumulation 14 days after treatment, % of untreated” value ([3]; dose 6 (6x, 480 g ai/ha)) was 15.0% and the “plant height 14 days after treatment, % of untreated” value ([3]; dose 6 (6x, 480 g ai/ha)) was 14.58%. For the same compound, the height reduction ([3]; susceptible line, 0.5x, 14 DAT) was 85%.
